Results: paper PMC10935252, “Synthesis and Biological Evaluation of New Dihydrofuro[3,2-b]piperidine Derivatives as Potent α-Glucosidase Inhibitors” (Molecules, 2024)

System: α-glucosidase from yeast
Test: α-Glucosidase inhibition assay
Assay type: biochemical, Baker’s yeast
Settings: ratio of IC50 values against α-glucosidase from yeast
Description: α-Glucosidase activity was assayed by the method reported, with minor modifications. […] The reaction mixture contained 150 μL of enzyme solution, 150 μL of inhibitor, and 150 μL of substrate (maltose). The substrate and α-glucosidase (Baker’s yeast) were purchased from Sigma-Aldrich Chemical (St. Louis, MO, USA). Both the inhibitor and the substrate were first dissolved in dimethylsulfoxide (DMSO) and then diluted with Na2HPO4/NaH2PO4 buffer for a final concentration of DMSO of 5%. The enzymatic reaction was started after incubation of the enzyme (0.04 U/mL) for 10 min in the presence of the inhibitor (five different concentrations) by the addition of the substrate (0.5 mM). The mixture was incubated at 37 °C for 60 min, and the reaction was quenched in boiling water for 10 min. The supernatant was taken to determine the content of glucose by means of the glucose oxidase method using a commercial glucose kit (Sichuan Mike Biotechnology Co., Ltd., Chengdu, China). The absorption at 505 nm was measured immediately and taken as the relative rate for the hydrolysis of the substrate. The blank control (the distilled water instead of sample and enzyme solution in the process) and the negative control (distilled water instead of sample solution in the process) were also prepared. Acarbose was used as the positive control. To calculate the inhibition rate (%), the following formula was used: (controlnegative − sample)/(controlnegative − controlblank) × 100%. The entire experiment was carried out in triplicate.

Row | SMILES | times stronger activity than the positive control acarbose
1 | C[C@]1(O)C[C@@H]2[C@H](O1)[C@@H](O)[C@@H](O)CN2Cc1c(Cl)cc(O)cc1Cl [Compound 32, (2R, 3aR, 6S, 7S, 7aS)-2,6,7-trihydroxy-2-methyl-4-(2,6-dichloro-4-hydroxylbenzyl)-3a,7a-Dihydrofuro[3,2-b]piperidine] | 30 times

Same assay, conditions: substrate maltose 0.5 mM, pH 6.8, 37 °C; mean ± SD of three independent experiments; read-out: IC50 against α-glucosidase from yeast

Row | SMILES | IC50
2 | C[C@H]1O[C@H](O[C@H]2[C@H](O)[C@@H](O)[C@@H](O[C@H]3[C@H](O)[C@@H](O)C(O)O[C@@H]3CO)O[C@@H]2CO)[C@H](O)[C@@H](O)[C@@H]1N[C@H]1C=C(CO)[C@@H](O)[C@H](O)[C@H]1O (some centres unmarked) [Acarbose, reference compound] | 2 ± 0.2 µM
3 | CC(=O)C[C@H]1NC[C@@H](O)[C@@H](O)[C@@H]1O [Compound 6] | > 20 µM
4 | CC(=O)C[C@H]1NC[C@H](O)[C@H](O)[C@H]1O [Compound 12] | > 20 µM
5 | C[C@]1(O)C[C@@H]2[C@@H](O1)[C@H](O)[C@H](O)CN2Cc1ccccc1Cl [Compound 13, (2R, 3aR, 6R, 7R, 7aR)-2,6,7-trihydroxy-2-methyl-4-(2-chlorobenzyl)-3a,7a-Dihydrofuro[3,2-b]piperidine] | 13 ± 0.5 µM
6 | C[C@]1(O)C[C@@H]2[C@@H](O1)[C@H](O)[C@H](O)CN2Cc1ccc(O)cc1 [Compound 14, (2R, 3aR, 6R, 7R, 7aR)-2,6,7-trihydroxy-2-methyl-4-(4-hydroxylbenzyl)-3a,7a-Dihydrofuro[3,2-b]piperidine] | 10 ± 0.7 µM
7 | C[C@]1(O)C[C@@H]2[C@@H](O1)[C@H](O)[C@H](O)CN2Cc1ccccc1O [Compound 15, (2R, 3aR, 6R, 7R, 7aR)-2,6,7-trihydroxy-2-methyl-4-(2-hydroxylbenzyl)-3a,7a-Dihydrofuro[3,2-b]piperidine] | > 20 µM
8 | C[C@]1(O)C[C@@H]2[C@@H](O1)[C@H](O)[C@H](O)CN2Cc1cccc(O)c1 [Compound 16, (2R, 3aR, 6R, 7R, 7aR)-2,6,7-trihydroxy-2-methyl-4-(3-hydroxylbenzyl)-3a,7a-Dihydrofuro[3,2-b]piperidine] | > 20 µM
9 | C[C@]1(O)C[C@@H]2[C@@H](O1)[C@H](O)[C@H](O)CN2Cc1ccc(O)c(Cl)c1 [Compound 17, (2R, 3aR, 6R, 7R, 7aR)-2,6,7-trihydroxy-2-methyl-4-(3-chloro-4-hydroxylbenzyl)-3a,7a-Dihydrofuro[3,2-b]piperidine] | 4.9 ± 0.2 µM
10 | C[C@]1(O)C[C@@H]2[C@@H](O1)[C@H](O)[C@H](O)CN2Cc1ccc(O)c(Br)c1 [Compound 18, (2R, 3aR, 6R, 7R, 7aR)-2,6,7-trihydroxy-2-methyl-4-(3-bromo-4-hydroxylbenzyl)-3a,7a-Dihydrofuro[3,2-b]piperidine] | 5.5 ± 0.4 µM
11 | C[C@]1(O)C[C@@H]2[C@@H](O1)[C@H](O)[C@H](O)CN2Cc1ccc(O)c(F)c1 [Compound 19, (2R, 3aR, 6R, 7R, 7aR)-2,6,7-trihydroxy-2-methyl-4-(3-fluoro-4-hydroxylbenzyl)-3a,7a-Dihydrofuro[3,2-b]piperidine] | 5.4 ± 0.3 µM
12 | C[C@]1(O)C[C@@H]2[C@@H](O1)[C@H](O)[C@H](O)CN2Cc1ccc(O)cc1Cl [Compound 20, (2R, 3aR, 6R, 7R, 7aR)-2,6,7-trihydroxy-2-methyl-4-(2-chloro-4-hydroxylbenzyl)-3a,7a-Dihydrofuro[3,2-b]piperidine] | 4.4 ± 0.3 µM
13 | C[C@]1(O)C[C@@H]2[C@@H](O1)[C@H](O)[C@H](O)CN2Cc1c(Cl)cc(O)cc1Cl [Compound 21, (2R, 3aR, 6R, 7R, 7aR)-2,6,7-trihydroxy-2-methyl-4-(2,6-dichloro-4-hydroxylbenzyl)-3a,7a-Dihydrofuro[3,2-b]piperidine] | 0.91 ± 0.1 µM
14 | COc1cc(CN2C[C@@H](O)[C@@H](O)[C@@H]3O[C@@](C)(O)C[C@H]32)ccc1O [Compound 22, (2R, 3aR, 6R, 7R, 7aR)-2,6,7-trihydroxy-2-methyl-4-(4-hydroxyl-methoxylbenzyl)-3a,7a-Dihydrofuro[3,2-b]piperidine] | 10.5 ± 0.8 µM
15 | CCOc1cc(CN2C[C@@H](O)[C@@H](O)[C@@H]3O[C@@](C)(O)C[C@H]32)ccc1O [Compound 23, (2R, 3aR, 6R, 7R, 7aR)-2,6,7-trihydroxy-2-methyl-4-(4-hydroxyl-3-ethyoxylbenzyl)-3a,7a-Dihydrofuro[3,2-b]piperidine] | 9 ± 0.6 µM
16 | C[C@]1(O)C[C@@H]2[C@@H](O1)[C@H](O)[C@H](O)CN2Cc1cc(Br)c(O)c(Br)c1 [Compound 24, (2R, 3aR, 6R, 7R, 7aR)-2,6,7-trihydroxy-2-methyl-4-(3,5-dibromo-4-hydroxyl-benzyl)-3a,7a-Dihydrofuro[3,2-b]piperidine] | 1.9 ± 0.2 µM
17 | C[C@]1(O)C[C@@H]2[C@H](O1)[C@@H](O)[C@@H](O)CN2Cc1ccc(O)cc1 [Compound 25, (2R, 3aR, 6S, 7S, 7aS)-2,6,7-trihydroxy-2-methyl-4-(4-hydroxylbenzyl)-3a,7a-di-hydrofuro[3,2-b]piperidine] | 8.3 ± 0.4 µM
18 | C[C@]1(O)C[C@@H]2[C@H](O1)[C@@H](O)[C@@H](O)CN2Cc1ccccc1O [Compound 26, (2R, 3aR, 6S, 7S, 7aS)-2,6,7-trihydroxy-2-methyl-4-(2-hydroxylbenzyl)-3a,7a-di-hydrofuro[3,2-b]piperidine] | > 20 µM
19 | C[C@]1(O)C[C@@H]2[C@H](O1)[C@@H](O)[C@@H](O)CN2Cc1cccc(O)c1 [Compound 27, (2R, 3aR, 6S, 7S, 7aS)-2,6,7-trihydroxy-2-methyl-4-(3-hydroxylbenzyl)-3a,7a-di-hydrofuro[3,2-b]piperidine] | 3.7 ± 0.1 µM
20 | C[C@]1(O)C[C@@H]2[C@H](O1)[C@@H](O)[C@@H](O)CN2Cc1ccc(O)c(Cl)c1 [Compound 28, (2R, 3aR, 6S, 7S, 7aS)-2,6,7-trihydroxy-2-methyl-4-(3-chloro-4-hydroxylbenzyl)-3a,7a-Dihydrofuro[3,2-b]piperidine] | 0.5 ± 0.1 µM
21 | C[C@]1(O)C[C@@H]2[C@H](O1)[C@@H](O)[C@@H](O)CN2Cc1ccc(O)c(Br)c1 [Compound 29, (2R, 3aR, 6S, 7S, 7aS)-2,6,7-trihydroxy-2-methyl-4-(3-bromo-4-hydroxylbenzyl)-3a,7a-Dihydrofuro[3,2-b]piperidine] | 1.2 ± 0.1 µM
22 | C[C@]1(O)C[C@@H]2[C@H](O1)[C@@H](O)[C@@H](O)CN2Cc1ccc(O)c(F)c1 [Compound 30, (2R, 3aR, 6S, 7S, 7aS)-2,6,7-trihydroxy-2-methyl-4-(3-fluoro-4-hydroxylbenzyl)-3a,7a-Dihydrofuro[3,2-b]piperidine] | 2.6 ± 0.3 µM
23 | C[C@]1(O)C[C@@H]2[C@H](O1)[C@@H](O)[C@@H](O)CN2Cc1ccc(O)cc1Cl [Compound 31, (2R, 3aR, 6S, 7S, 7aS)-2,6,7-trihydroxy-2-methyl-4-(2-chloro-4-hydroxylbenzyl)-3a,7a-Dihydrofuro[3,2-b]piperidine] | 1.8 ± 0.2 µM
24 | C[C@]1(O)C[C@@H]2[C@H](O1)[C@@H](O)[C@@H](O)CN2Cc1c(Cl)cc(O)cc1Cl [Compound 32, (2R, 3aR, 6S, 7S, 7aS)-2,6,7-trihydroxy-2-methyl-4-(2,6-dichloro-4-hydroxylbenzyl)-3a,7a-Dihydrofuro[3,2-b]piperidine] | 0.07 ± 0.01 µM
25 | COc1cc(CN2C[C@H](O)[C@H](O)[C@H]3O[C@@](C)(O)C[C@H]32)ccc1O [Compound 33, (2R, 3aR, 6S, 7S, 7aS)-2,6,7-trihydroxy-2-methyl-4-(4-hydroxyl-methoxylbenzyl)-3a,7a-Dihydrofuro[3,2-b]piperidine] | > 20 µM
26 | CCOc1cc(CN2C[C@H](O)[C@H](O)[C@H]3O[C@@](C)(O)C[C@H]32)ccc1O [Compound 34, (2R, 3aR, 6S, 7S, 7aS)-2,6,7-trihydroxy-2-methyl-4-(4-hydroxyl-3-ethyoxylbenzyl)-3a,7a-Dihydrofuro[3,2-b]piperidine] | > 20 µM
